According to patent US9951028B2, “Agricultural chemicals” (REDAG CROP PROTECTION LTD, priority 2013, dated 2018):

Assays:
Type in all cases: in vivo
[1] = tested on: garden cress, Lepidium sativum; test: Herbicidal efficacy screen, potter tower spray, necrosis assessed; conditions: 200 g/ha
Method: (§1) Compounds 22, 23 and 24 were screened for herbicidal efficacy against target plants: garden cress, Lepidium sativum, common chickweed, Stellaria media, and white mustard […] alba Plants were obtained as seeds and were grown to the 2-4 true leaf stage. Plants were grown under laboratory conditions, individually in seed trays. Each plant (in an approximately 3 cm diameter plug) was then detached from the tray for spraying. The compounds were screened at a range of five concentrations, diluted in acetone and TweenTM. A carrier only control was also conducted. Treatments were applied directly onto the plants, using a potter tower, at a specified application rate. One plant of each species was sprayed using a potter tower. The 3 different types of plants were placed on a 10 cm diameter platform directly beneath the potter sprayer and sprayed simultaneously. The growth of the plants and any Phytotoxicity effects were then assessed at intervals over 21 days, according to EPPO guideline PP1/135. Five replicas were performed for each treatment, for each species. In the tables below C represents a percentage increase in necrosis relative to the control of 0.1-50; B represents a percentage inhibition of 50-80; and A represents a percentage inhibition of 80-100.

[2] = tested on: white mustard Sinapsis alba; test: as above
Method: as §1

[3] = tested on: Abutilon theophrasti (China Jute); test: Herbicidal efficacy screen, corrected necrosis
Method: (§2) Plants were obtained as seeds and were grown to the 2-4 true leaf stage. Plants were grown under laboratory conditions, individually in seed trays. Each plant (in an approximately 3 cm diameter plug) was then detached from the tray for spraying. The compounds were screened at a range of five concentrations, diluted in acetone and Tween™. A carrier only control was also conducted. Treatments were applied directly onto the plants, using a potter tower, at a specified application rate. One plant of each species was sprayed using a potter tower. The 3 different types of plants were placed on a 10 cm diameter platform directly beneath the potter sprayer and sprayed simultaneously. The growth of the plants and any Phytotoxicity effects were then assessed at intervals over 21 days, according to EPPO guideline PP1/135. In the tables below C represents a percentage increase in necrosis relative to the control of 0.1-50; B represents a percentage inhibition of 50-80; and A represents a percentage inhibition of 80-100. Certain compounds of the invention were screened for herbicidal efficacy against target plants: Amaranthus retroflexus (redroot pigweed), Abutilon theophrasti (China Jute): Capsella bursa-pastoris, (shepherd's-purse) Echinochloa crus-galli, Hordeum vulgare (Barley),

[4] = tested on: Amaranthus retroflexus (redroot pigweed); test: Herbicidal efficacy screen, corrected necrosis
Method: as §2

[5] = tested on: Capsella bursa-pastoris, (shepherd's-purse); test: Herbicidal efficacy screen, corrected necrosis
Method: as §2

[6] = 12.5 g/ha, day 1 post application
[7] = 12.5 g/ha, day 7 post application
[8] = 25 g/ha, day 1 post application
[9] = 25 g/ha, day 7 post application
[10] = 50 g/ha, day 1 post application
[11] = 50 g/ha, day 7 post application
[12] = 100 g/ha, day 1 post application
[13] = 100 g/ha, day 7 post application
[14] = 6.25 g/ha, day 1 post application
[15] = 6.25 g/ha, day 7 post application

CC(C)N(C)S(=O)(=O)/N=C/c1cc(-n2c(=O)cc(C(F)(F)F)n(C)c2=O)c(F)cc1Cl [Compound 22, 1-[4-Chloro-2-fluoro-5-[(E)-(isopropyl(methyl)sulfamoyl)iminomethyl]phenyl]-3-methyl-2,6-dioxo-4-(trifluoromethyl)pyrimidine]
Average of necrosis ([1]; day 5 post application): B (B represents a percentage inhibition of 50-80) | Average of necrosis ([1]; day 7 post application): B (B represents a percentage inhibition of 50-80) | Average of necrosis ([1]; day 10 post application): A (A represents a percentage inhibition of 80-100) | Average of necrosis [2, 6]: C (C represents a percentage increase in necrosis relative to the control of 0.1-50) | Average of necrosis ([2]; 12.5 g/ha, day 2 post application): C (C represents a percentage increase in necrosis relative to the control of 0.1-50) | Average of necrosis ([2]; 12.5 g/ha, day 3 post application): C (C represents a percentage increase in necrosis relative to the control of 0.1-50) | Average of necrosis ([2]; 12.5 g/ha, day 4 post application): C (C represents a percentage increase in necrosis relative to the control of 0.1-50) | Average of necrosis ([2]; 12.5 g/ha, day 5 post application): C (C represents a percentage increase in necrosis relative to the control of 0.1-50) | Average of necrosis [2, 7]: C (C represents a percentage increase in necrosis relative to the control of 0.1-50) | Average of necrosis ([2]; 12.5 g/ha, day 10 post application): B (B represents a percentage inhibition of 50-80) | Average of necrosis [2, 8]: C (C represents a percentage increase in necrosis relative to the control of 0.1-50) | Average of necrosis ([2]; 25 g/ha, day 2 post application): C (C represents a percentage increase in necrosis relative to the control of 0.1-50) | Average of necrosis ([2]; 25 g/ha, day 3 post application): C (C represents a percentage increase in necrosis relative to the control of 0.1-50) | Average of necrosis ([2]; 25 g/ha, day 4 post application): C (C represents a percentage increase in necrosis relative to the control of 0.1-50) | Average of necrosis ([2]; 25 g/ha, day 5 post application): C (C represents a percentage increase in necrosis relative to the control of 0.1-50) | Average of necrosis [2, 9]: C (C represents a percentage increase in necrosis relative to the control of 0.1-50) | Average of necrosis ([2]; 25 g/ha, day 10 post application): C (C represents a percentage increase in necrosis relative to the control of 0.1-50) | Average of necrosis [2, 10]: C (C represents a percentage increase in necrosis relative to the control of 0.1-50) | Average of necrosis ([2]; 50 g/ha, day 2 post application): C (C represents a percentage increase in necrosis relative to the control of 0.1-50) | Average of necrosis ([2]; 50 g/ha, day 3 post application): C (C represents a percentage increase in necrosis relative to the control of 0.1-50) | Average of necrosis ([2]; 50 g/ha, day 4 post application): C (C represents a percentage increase in necrosis relative to the control of 0.1-50) | Average of necrosis ([2]; 50 g/ha, day 5 post application): B (B represents a percentage inhibition of 50-80) | Average of necrosis [2, 11]: B (B represents a percentage inhibition of 50-80) | Average of necrosis ([2]; 50 g/ha, day 10 post application): B (B represents a percentage inhibition of 50-80) | Average of necrosis [2, 12]: C (C represents a percentage increase in necrosis relative to the control of 0.1-50) | Average of necrosis ([2]; 100 g/ha, day 2 post application): C (C represents a percentage increase in necrosis relative to the control of 0.1-50) | Average of necrosis ([2]; 100 g/ha, day 3 post application): C (C represents a percentage increase in necrosis relative to the control of 0.1-50) | Average of necrosis ([2]; 100 g/ha, day 4 post application): C (C represents a percentage increase in necrosis relative to the control of 0.1-50) | Average of necrosis ([2]; 100 g/ha, day 5 post application): C (C represents a percentage increase in necrosis relative to the control of 0.1-50) | Average of necrosis [2, 13]: C (C represents a percentage increase in necrosis relative to the control of 0.1-50) | Average of necrosis ([2]; 100 g/ha, day 10 post application): B (B represents a percentage inhibition of 50-80) | Average of necrosis ([2]; 200 g/ha, day 1 post application): C (C represents a percentage increase in necrosis relative to the control of 0.1-50) | Average of necrosis ([2]; 200 g/ha, day 2 post application): C (C represents a percentage increase in necrosis relative to the control of 0.1-50) | Average of necrosis ([2]; 200 g/ha, day 3 post application): C (C represents a percentage increase in necrosis relative to the control of 0.1-50) | Average of necrosis ([2]; 200 g/ha, day 4 post application): C (C represents a percentage increase in necrosis relative to the control of 0.1-50) | Average of necrosis ([2]; 200 g/ha, day 5 post application): C (C represents a percentage increase in necrosis relative to the control of 0.1-50) | Average of necrosis ([2]; 200 g/ha, day 7 post application): C (C represents a percentage increase in necrosis relative to the control of 0.1-50) | Average of necrosis ([2]; 200 g/ha, day 10 post application): B (B represents a percentage inhibition of 50-80) | Average of corrected necrosis [3, 14]: C (C represents a percentage increase in necrosis relative to the control of 0.1-50) | Average of corrected necrosis [3, 15]: A (A represents a percentage inhibition of 80-100) | Average of corrected necrosis [3, 6]: C (C represents a percentage increase in necrosis relative to the control of 0.1-50) | Average of corrected necrosis [3, 7]: A (A represents a percentage inhibition of 80-100) | Average of corrected necrosis [3, 8]: C (C represents a percentage increase in necrosis relative to the control of 0.1-50) | Average of corrected necrosis [3, 9]: A (A represents a percentage inhibition of 80-100) | Average of corrected necrosis [3, 10]: C (C represents a percentage increase in necrosis relative to the control of 0.1-50) | Average of corrected necrosis [3, 11]: A (A represents a percentage inhibition of 80-100) | Average of corrected necrosis [3, 12]: C (C represents a percentage increase in necrosis relative to the control of 0.1-50) | Average of corrected necrosis [3, 13]: A (A represents a percentage inhibition of 80-100) | Average of corrected necrosis [4, 14]: C (C represents a percentage increase in necrosis relative to the control of 0.1-50) | Average of corrected necrosis [4, 15]: A (A represents a percentage inhibition of 80-100) | Average of corrected necrosis [4, 6]: C (C represents a percentage increase in necrosis relative to the control of 0.1-50) | Average of corrected necrosis [4, 7]: A (A represents a percentage inhibition of 80-100) | Average of corrected necrosis [4, 8]: C (C represents a percentage increase in necrosis relative to the control of 0.1-50) | Average of corrected necrosis [4, 9]: A (A represents a percentage inhibition of 80-100) | Average of corrected necrosis [4, 10]: C (C represents a percentage increase in necrosis relative to the control of 0.1-50) | Average of corrected necrosis [4, 11]: A (A represents a percentage inhibition of 80-100) | Average of corrected necrosis [4, 12]: C (C represents a percentage increase in necrosis relative to the control of 0.1-50) | Average of corrected necrosis [4, 13]: A (A represents a percentage inhibition of 80-100) | Average of corrected necrosis [5, 14]: 0% | Average of corrected necrosis [5, 15]: A (A represents a percentage inhibition of 80-100) | Average of corrected necrosis [5, 6]: C (C represents a percentage increase in necrosis relative to the control of 0.1-50) | Average of corrected necrosis [5, 7]: A (A represents a percentage inhibition of 80-100) | Average of corrected necrosis [5, 8]: C (C represents a percentage increase in necrosis relative to the control of 0.1-50) | Average of corrected necrosis [5, 9]: A (A represents a percentage inhibition of 80-100) | Average of corrected necrosis [5, 10]: 0% | Average of corrected necrosis [5, 11]: A (A represents a percentage inhibition of 80-100) | Average of corrected necrosis [5, 12]: C (C represents a percentage increase in necrosis relative to the control of 0.1-50) | Average of corrected necrosis [5, 13]: A (A represents a percentage inhibition of 80-100)
